# Measured values reported in article PMC6736568, “Discovery of Novel Anti-cryptosporidial Activities From Natural Products by in vitro High-Throughput Phenotypic Screening” (Frontiers in Microbiology, 2019).
# Counter-ions that a name gives are not always drawn. Like-named read-outs stand apart in the source and are kept apart here.
# Assays:
# Cryptosporidium parvum = assay: qRT-PCR assay of the growth of C. parvum in vitro in HCT-8 host cells (primary and secondary screening, EC50); assay type: cell-based; settings: Cryptosporidium parvum, HCT-8; primary screening at 10 uM; read-out: Inhibition (%)
# [1] = primary screening at 10 uM, treated vs control
"Hs18S ΔCT (HCT-8 host cells (Hs18S); human, 41 h, 10 μM)",SMILES,inhibition at 10 µM (Cryptosporidium parvum),Hs18S ΔCT (HCT-8 host cells (Hs18S); [1]),cytotoxicity at 10 µM (in vitro),"cytotoxicity at 41 h, 10 µM (in vitro; human)","cytotoxicity at 41 h, 10 µM (in vitro)"
0.14,O=c1cc(-c2ccccc2)oc2cc(O)cc(O)c12 [CHRYSIN],20.3%,,,9.3%,
0.25,COc1ccc(-c2cc(=O)c3c(O)c(OC)c(OC)c(OC)c3o2)cc1 [GARDENIN B],53.6%,,,16%,
-0.42,COc1ccc2c(c1)OCc1c-2oc2cc(OC)ccc12 [DEHYDROVARIABILIN],22%,,,-33.6%,
-1.56,COc1ccc2[nH]cc(CCNC(C)=O)c2c1 [MELATONIN],-62.2%,,,-196%,
-0.09,Oc1cc(O)c2c(c1)O[C@H](c1ccc(O)c(O)c1)[C@H](O)C2 [EPICATECHIN],-0.62%,,,-6.3%,
-0.20,COc1c(O)cccc1O [2-METHOXYRESORCINOL],20.3%,,,-15%,
-0.21,"COc1ccc2c(=O)c(OC)c(-c3ccccc3)oc2c1 [3,7-DIMETHOXYFLAVONE]",49.7%,,,-15.4%,
-0.14,COc1cc(-c2coc3cc(O[C@@H]4O[C@H](CO)[C@@H](O)[C@H](O)[C@H]4O)c(OC)c(O)c3c2=O)cc(O)c1OC [IRIDIN],-13.3%,,,-10%,
-0.34,O=C(O)/C=C/c1ccc(O)c(O)c1 [CAFFEIC ACID],18.9%,,,-26.2%,
-1.06,CC(C)=CCc1c2c(c3occ(-c4ccc(O)cc4)c(=O)c3c1O)C=CC(C)(C)O2 [OSAJIN],-1.77%,,,-108%,
0.38,COc1cc(OC)c2ccc(=O)oc2c1 [CITROPTEN],-43.6%,,,23.1%,

# The next lines start with the compound.
SMILES,"Hs18S ΔCT (HCT-8 host cells (Hs18S); human, 41 h, 10 μM)",inhibition at 10 µM (Cryptosporidium parvum),Hs18S ΔCT (HCT-8 host cells (Hs18S); [1]),cytotoxicity at 10 µM (in vitro),"cytotoxicity at 41 h, 10 µM (in vitro; human)","cytotoxicity at 41 h, 10 µM (in vitro)"
COc1ccc(C(=O)O)cc1OC [VERATRIC ACID],,-10.7%,-0.09,-6.7%,,
O=c1c(-c2ccc(O)cc2)coc2c([C@@H]3O[C@H](CO)[C@@H](O)[C@H](O)[C@H]3O)c(O)ccc12 [PUERARIN],,-23%,-0.46,,-37.4%,
CC(C)[C@@H]1CC[C@@H](C)C[C@H]1OC(=O)c1ccccc1 [MENTHYL BENZOATE],0.24,1.74%,,,15.1%,
COc1cc2occc2c2oc(=O)ccc12 [ISOBERGAPTENE],,2%,0.17,11%,,
CC(C)CCC[C@@H](C)[C@H]1CC[C@H]2[C@@H]3CC=C4CC(=O)CC[C@]4(C)[C@H]3CC[C@]12C [CHOLEST-5-EN-3-ONE],0.04,-37.5%,,,2.7%,
C=CC(C)(O)CCC=C(C)CCC=C(C)C (mixture of isomers) [NEROLIDOL],-0.17,-35.5%,,,-12.9%,
CC1=C(/C=C/C(C)=C/C=C/C(C)=C/C=C/C=C(C)/C=C/C=C(C)/C=C/C(=O)[C@]2(C)C[C@@H](O)CC2(C)C)C(C)(C)C[C@H](O)C1 [CAPSANTHIN],-0.08,-5.31%,,,-5.5%,
COc1ccc2c3c1O[C@H]1C[C@@H](O)C=C[C@@]31CCN(C)C2 [GALANTAMINE],,2.66%,-0.34,-26.2%,,
O=c1c(-c2ccc(O)cc2)coc2cc(O)cc(O)c12 [GENISTEIN],,6.85%,0.20,12.7%,,
C=C(C)[C@@H]1CC[C@]2(C)CC[C@]3(C)[C@H](CC[C@@H]4[C@@]5(C)CC[C@H](O)C(C)(C)[C@@H]5CC[C@]43C)[C@@H]12 [LUPEOL],,41.8%,0.05,,3.4%,
C[n+]1cc2c3c(ccc2c2ccc4cc5c(cc4c21)OCO5)OCO3 [SANGUINARINE SULFATE],,18.6%,0.07,4.9%,,
O=C(O)CCCCCCCCCCCC[C@@H]1C=CCC1 [CHAULMOOGRIC ACID],-0.58,-4.94%,,,-49.1%,
C[C@H](CCC(=O)O)[C@H]1CC[C@H]2[C@@H]3C(=O)C[C@@H]4CC(=O)CC[C@]4(C)[C@H]3CC(=O)[C@]12C [DEHYDROCHOLIC ACID],-0.06,-24.5%,,,-4.2%,
CC1(C)O[C@H]2CC(=O)OC[C@]23[C@H]2CC[C@@]4(C)[C@H](c5ccoc5)OC(=O)[C@H]5O[C@]54[C@]2(C)C(=O)C[C@@H]13 [LIMONIN],-0.12,26.2%,,,-8.4%,
CC(C)/C(O)=C1/C(=O)O[C@@H](c2ccoc2)[C@]2(C)C(O)[C@@H](O)[C@@]34OC5(C)OC67CC(C)(C(O)[C@]6(O)[C@@H](O)[C@]3(O5)C12)[C@H](CC(=O)O)[C@]74C (stereo partly drawn) [HYDROLYSIS PRODUCT OF BUSSEIN],-0.69,8.3%,,,-60.9%,
COc1cc(OC)c(-c2c(OC)cc(OC)cc2OC)c(OC)c1 [DIFUCOL HEXAMETHYL ETHER],,-10.9%,0.08,5.1%,,
C=C[C@H]1C[N@@]2CC[C@H]1C[C@@H]2[C@@H](O)c1ccnc2ccccc12 [CINCHONINE],,-10.5%,0.01,,,0.4%
O=C(O)/C=C/c1ccccc1 [CINNAMIC ACID],,2.86%,-0.39,-31%,,
CCCCCCCCCCCCCCCCCCOCC(O)CO (stereo not drawn) [BATYL ALCOHOL],-0.57,41.3%,,,-48%,
C=C(C)[C@H]1Cc2c(ccc3c(=O)c4c(oc23)COc2cc(OC)c(OC)cc2-4)O1 [DEHYDROROTENONE],,-38.5%,-0.07,-4.9%,,
NC(=O)NCCC[C@H](N)C(=O)O [CITRULLINE],,-44.7%,0.62,34.9%,,
OCc1c[nH]c2ccccc12 [INDOLE-3-CARBINOL],,0.77%,-0.40,,-31.7%,
O=C(O)C1CC([C@@H]2CCCCN2)CN2CCCCC12 (stereo partly drawn) [APHYLLIC ACID],0.25,-28.5%,,,16.1%,
O=C(O)/C=C/C=C/c1ccc2c(c1)OCO2 [PIPERIC ACID],,0.79%,-0.02,-1.7%,,
O=C(O)/C=C(\CC(=O)O)C(=O)O [ACONITIC ACID],-0.01,-3.59%,,,-0.7%,
